Data: patent US20120258938A1, “Enzymatic Production or Chemical Synthesis and Uses for 5,7-Dienes and UVB Conversion Products Thereof” (priority 2008, published 2012)

Experiments:
HaCaT keratinocytes [1] = experiment: [3H]-thymidine DNA synthesis in HaCaT keratinocytes; assay type: cell-based, human
Description: HaCaT keratinocytes were plated in 96-well plates at the density of 10,000 cells/well in DMEM (Cellgro, Herndon Va.) containing 5% charcoal treated fetal bovine serum (Hyclone, Logan, Utah), 1% antibiotic solution (PSA, Sigma, St. Louis, […].). Next day, media were changed and vehicle (ethanol) or secosteroids added. Cells were incubated with compounds for 48 hours. [^3H]-thymidine (Amersham Biosciences, Picataway, N.Y.) was added to the final concentration of 1 μCi/mL medium for last 12 hours of incubation. Media were then discarded, cells detached with trypsin and harvested on a glass fiber filter (Packard, Meriden, Calif.). Radioactivity was measured with a beta counter (Direct Beta-Counter Matrix 9600; Packard).
(§1) To measure DNA synthesis, keratinocytes, melanoma or prostate cancer cells were plated in 96-well plates. After overnight incubation tested compounds were added to the medium to achieve final concentrations 10^−7-10^−10 [M]. 100 μl of medium per well containing vitamin D3 compound was added to the cells. After 36 hours of incubation [3H]-thymidine (specific activity 88.0 Ci/mmol; Amersham Biosciences, Picataway, N.Y., USA) was added at 1 μCi/mL medium. After 12 hours, media were discarded, cells detached with trypsin and harvested on a glass fiber filter (Packard, Meriden, Calif., USA). 3H-radioactivity was measured with a beta counter (Direct Beta-Counter Matrix 9600; Packard).
HaCaT keratinocytes were plated out in 24-well plates, 50,000 cells/well. […] After 4 h media were discarded, cells washed with cold phosphate-buffered saline and incubated in 10% trichloroacetic acid for 30 min. Cells were washed again with phosphate-buffered saline, 100 μl 1.0 M NaOH was added to each well and plates incubated for 30 min at 30° C. The supernatant was collected and the ^3H-radioactivity measured by scintillation counting using a Direct Beta-Counter Matrix 9600 (Packard). The [^3H]-thymidine incorporation into DNA was measured separately for each well and the results entered into the calculation as the mean of 6 wells for each condition in a series of six experiments (n=36). Data were analyzed with GraphPad Prizm Version 4.0 (GraphPad Software Inc., San Diego, Calif., USA) using t tests. Differences were considered significant when p<0.05.

HaCaT keratinocytes [2] = assay type: cell-based, human
Description: The cells were seeded in 96-well plate in F10 medium. Following 48 to 96 h incubation cells were fixed with 10% trichloroacetic acid, washed and then incubated with 0.04% sulforhodamine B (in 1% acetic acid) for 30 min. Following second wash with 1% acetic acid, dye incorporated into the cells was solubilized in 10 mM Tris by shaking for 30 min and the absorbance was measured at 570 nm.
Cells are treated with the test compound, washed, fixed and stained with the Sulphorhodamine B dye (SRB). The incorporated dye is then liberated from the cells in a tris-base solution. An increase or decrease in the number of cells (total biomass) results in a concomitant change in the amount of dye incorporated by the cells in the culture. Cells were seeded in growth medium at 10,000 per well in 96-well plates. After 12 h of culture the medium was changed to 5% charcoal-treated serum and cells cultured for a further 47 h with serial dilutions of 1α,20-dihydroxycholecalciferol (diluted as for as for thymidine incorporation). […] was then added to a final concentration of 20% from a 50% stock and cells incubated for 1 h. Cells were stained with SRB 0.4% (Sigma), washed with 1% acetic acid and dried. Trsi-HCl was added and the absorbance measured at 565 nm. The absorbance of blank medium only, was also measured also at 690 nm.

CYP24 = experiment: Real-time RT PCR CYP24 mRNA in HaCaT keratinocytes; assay type: cell-based, human
Description: RNA was extracted as above. Reverse transcription was performed with Transcriptor First Strand cDNA Synthesis Kit (Roche, Nutley, N.J.). The primers (right: 5′-GCA GCT CGA CTG GAG TGA C-3′ (SEQ ID NO: 1) and left: 5′-CATCATGGCCATCAAAACAAT-3′(SEQ ID NO: 2)) and probe (cat. no. 04689135001) were designed with Universal Probe Library (Roche, Nutley, N.J.). Real-time PCR was performed using TaqMan PCR Master Mix at 50° C. for 2 min, 95° C. for 10 min and then 50 cycles (95° C. for 15 sec, 60° C. for 1 min). The data was collected on a Roche Light Cycler 480. The amounts of CYP24 were normalized using cyclophilin D as a housekeeping gene with comparative CT method.
The RNA from HaCaT keratinocytes treated with 1α,20-dihydroxycholecalciferol was isolated and RT PCR run as described in Example 1.

[3] = tested on: neonatal human epidermal keratinocytes (HEKn); experiment: [3H]-thymidine proliferation assay in HEKn; assay type: cell-based; details: 24 h, 0.1 nM
Description: Neonatal human epidermal keratinocytes (HEKn) were isolated form neonatal foreskin of African-American donors and grown in HKM (Lonza) medium supplemented with HKGF (Lonza) as described previously (8a,c). For the cell proliferation assay the cells from a third passage were seeded into 24-well plates (TPP, Switzerland) and grown until reaching ˜80% confluence. Secosteroids were dissolved in ethanol and then diluted in keratinocyte medium containing 0.1% BSA (Sigma). Cells were incubated for 24 h then 1 μCi/ml [^3H]-thymidine (Moravek Biochemicals Inc., Brea, Calif.) was added and cells were incubated for further 4 h. Excess of unbound thymidine was removed by washing cells with PBS. Cells were precipitated with 10% trichloroacetic acid (TCA) (Sigma) and then the precipitate dissolved with 1N NaOH. The solution was collected in vials and thymidine incorporation was determined in liquid scintillation counter (Beckman LS 6000, Santa Clara, Calif.).

bovine CYP11A1 = bovine CYP11A1 (Bos taurus, UniProt P00189); experiment: Metabolism by CYP11A1 (P450scc) in phospholipid vesicles; assay type: in vitro ADME; details: first 2 min of incubation
Description: (§2) Adrenodoxin was added last to initiate the reaction.
(§3) Products and remaining substrate were extracted with dichloromethane, and measured by reverse phase HPLC as described before (12, 13b).

human CYP27B1 = human CYP27B1 (Homo sapiens, UniProt O15528); experiment: Metabolism by CYP27B1 in phospholipid vesicles; assay type: in vitro ADME; details: up to 10 min
Description: as §2, §3

involucrin [4] = experiment: Real-time RT PCR involucrin mRNA, normal human epidermal keratinocytes; assay type: cell-based; details: 10^−7 M, time dependant
Description: RNA was extracted using an Absolutely RNA RT-PCR Miniprep Kit (Stratagene, La Jolla, Calif.). Real time PCR and reverse transcription products were purchased from Applied Biosystems, Foster City, Calif. Reverse transcription was performed using Taqman® Reverse Transcription Reagents. The following PCR products were used: cytokeratin 14: Hs00265033_m1, involucrin: Hs00846307_s1, CYP27A1: Hs00168003_ml, CYP27B1: Hs00168017_ml, 18SrRNA: Hs99999901_s1. The reaction was performed with Taqman® Universal PCR Master Mix; data were collected on an ABI Prism 7700 and analyzed on Sequence Detector 1.9.1. Specific gene amounts were related to 18SrRNA by comparative CT method.

involucrin [5] = experiment: Involucrin protein fluorescence, normal human epidermal keratinocytes; assay type: cell-based; details: 10^−7 M
Description: Cells were seeded in 6-well Lab-Tek II chamber slides (Nalge Nunc, Inc., Naperville, Ill.). Cells were pre-incubated in Epilife medium with HKGS overnight and then stimulated with 20-hydroxycholecalciferol in Epilife medium with HKGS for 24 hours and then fixed with 4% paraformaldehyde in PBS for 10 minutes. The cells were permeabilized with 0.2% Triton-X 100 in PBS for 5 minutes and blocked with 1% bovine serum albumine (BSA; in PBS) for 30 minutes. The cells were incubated consecutively with mouse anti-human involucrin antibody (Novocastra, Newcastle upon Tyne, UK) for 3 hours, anti-mouse-fluorescein isothiocyanate (FITC) conjugate (Novocastra, Newcastle upon Tyne, UK) for 1 hour in buffer containing 1% BSA in PBS. The slides were extensively washed with PBS between stainings and mounted with Vectashield mounting medium with propidium iodide (Vector Laboratories, Burlingame, Calif.). Slides not incubated with primary antibody were used as background controls. Slides were viewed with NIKON Eclipse TE300 microscope (Melville, N.Y.).
Data are shown as mean±SD (n=10-20). **, p<0.01. ***, p<0.001.

human melanoma cells = experiment: Melanoma colony formation (crystal violet, 7 days); assay type: cell-based; details: colonies over 0.2 mm and 0.5 mm
From the text: Inhibitory effects of 20(OH)D2 (FIGS. 47A-47B) in comparison to 1,25(OH)2D3 (FIGS. 47C-47D) on the ability of human melanoma cells to form colonies was examined.

[6] = tested on: immortalized normal epidermal melanocytes (PIG1 line); experiment: Proliferation of PIG1 melanocytes; assay type: cell-based; details: PIG1, 72 h
[7] = tested on: neonatal epidermal melanocytes; experiment: Proliferation of neonatal epidermal melanocytes; assay type: cell-based; details: 48 hours
[8] = tested on: SKMEL-188 human melanoma cells; experiment: Proliferation (DNA synthesis) of SKMEL-188; assay type: cell-based; details: SKMEL-188, 72 h
Description: as §1
(§4) HaCaT keratinocytes were an incubated for 48 h (FIG. 48A) or 72 h (FIG. 48B) in the presence of graded concentrations of 20(OH)D2 and/or 1,25(OH)2D3. […] Data are shown as mean±SD (n 3); *, p<0.05; **, p<0.01.

[9] = tested on: AbC1 hamster melanoma cells; experiment: Proliferation (DNA synthesis) of AbC1; assay type: cell-based; details: AbC1, 72 h
Description: as §1, §4

[10] = substrate: C=C1CC[C@H](O)C/C1=C/C=C1\CCC[C@]2(C)[C@@H]([C@H](C)CCCC(C)C)CC[C@@H]12; experiment: cells, lysate or membranes named; details: other: cyclodextrin; 37.0 °C

Chain of bovine CYP11A1 (P00189 40-520): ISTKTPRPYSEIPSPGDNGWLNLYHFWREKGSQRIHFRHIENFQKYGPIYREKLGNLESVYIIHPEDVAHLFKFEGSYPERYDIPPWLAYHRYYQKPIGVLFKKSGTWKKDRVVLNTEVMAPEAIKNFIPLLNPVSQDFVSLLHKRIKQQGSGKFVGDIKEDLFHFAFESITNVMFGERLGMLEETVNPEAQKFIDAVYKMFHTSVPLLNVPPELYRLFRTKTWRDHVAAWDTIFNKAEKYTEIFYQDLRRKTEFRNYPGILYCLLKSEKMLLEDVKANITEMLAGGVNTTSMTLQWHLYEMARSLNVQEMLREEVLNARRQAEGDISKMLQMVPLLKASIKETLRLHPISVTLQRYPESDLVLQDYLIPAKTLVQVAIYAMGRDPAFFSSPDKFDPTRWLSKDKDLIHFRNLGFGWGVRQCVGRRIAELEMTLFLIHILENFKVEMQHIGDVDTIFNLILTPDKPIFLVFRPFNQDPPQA
Chain of human CYP27B1 (O15528 whole entry): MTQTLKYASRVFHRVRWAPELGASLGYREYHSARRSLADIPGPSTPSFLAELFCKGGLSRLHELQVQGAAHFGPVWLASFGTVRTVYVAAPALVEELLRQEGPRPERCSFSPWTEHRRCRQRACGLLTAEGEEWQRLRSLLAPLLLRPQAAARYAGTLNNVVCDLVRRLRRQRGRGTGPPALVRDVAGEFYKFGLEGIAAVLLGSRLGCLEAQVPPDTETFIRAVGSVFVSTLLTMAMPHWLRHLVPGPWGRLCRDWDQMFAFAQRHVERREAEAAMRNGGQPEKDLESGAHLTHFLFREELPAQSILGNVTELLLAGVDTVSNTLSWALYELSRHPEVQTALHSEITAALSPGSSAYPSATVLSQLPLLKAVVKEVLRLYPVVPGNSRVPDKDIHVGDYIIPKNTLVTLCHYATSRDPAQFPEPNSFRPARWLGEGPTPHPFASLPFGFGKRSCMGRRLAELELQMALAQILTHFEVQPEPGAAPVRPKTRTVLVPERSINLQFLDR

Molecule: C=C1C(=CC=C2CCCC3(C)C2CCC3C(C)(O)CCCC(C)C)CC(O)CC1O (stereo not drawn) [1α,20-dihydroxycholecalciferol, (5Z,7E)-9,10-secocholesta-5,7,10(19)-triene-1α,3β,20-triol]
- decrease in DNA synthesis (HaCaT keratinocytes [1]; 0.1 nM): 30%
- decrease in DNA synthesis (HaCaT keratinocytes [1]; 10 nM): 50%
- keratinocyte proliferation compared with 1α,25-dihydroxycholecalciferol (HaCaT keratinocytes [1]; HaCaT, 48 h): inhibit keratinocyte proliferation more potently than the control compound
- number of viable cells (sulforhodamine B) (HaCaT keratinocytes [2]): caused a decrease in number of viable cells
- CYP24 mRNA level (CYP24; 0.1 μM, 6 h): Modest stimulation
- CYP24 mRNA level (CYP24; 0.1 μM, 24 h): the effect was lost by 24 h
- CYP24 mRNA level (CYP24; 1 μM, 6 h and 24 h): markedly increased the Cyp 24 mRNA level

Molecule: C=C1CCC(O)CC1=CC=C1CCCC2(C)C1CCC2C(C)(O)CCCC(C)C (stereo not drawn) [20R(OH)D3, (5Z,7E)-9,10-secocholesta-5,7,10(19)-triene-3β,20R-diol]
- thymidine incorporation into DNA [3]: slightly stimulated thymidine incorporation into DNA
- substrate consumed (bovine CYP11A1): 58%
- metabolism by CYP27B1 (human CYP27B1): metabolized to a single product at comparable initial rates

Molecule: (5Z,7E,22E)-9,10-secoergosta-5,7,9(10),22-tetraene-3β,20-diol [20(OH)D2]
- involucrin gene expression (involucrin [4]): induced time dependant involucrin gene expression
- involucrin protein expression (involucrin [5]): increased expression of involucrin protein
- melanoma cell colony formation compared with 1,25(OH)2D3 (human melanoma cells): Inhibits Melanoma Cell Colony Formation Better than 1.25 OH 2D3
- proliferation [6]: Dose dependent inhibition of the proliferation
- proliferation [7]: Dose dependent inhibition of the proliferation
- proliferation [8]: Dose dependent inhibition of the proliferation
- proliferation [9]: Dose dependent inhibition of the proliferation

B1: CYP27A1 (Homo sapiens) (protein)
chain: ALPSDKATGAPGAGPGVRRRQRSLEEIPRLGQLRFFFQLFVQGYALQLHQLQVLYKAKYGPMWMSYLGPQMHVNLASAPLLEQVMRQEGKYPVRNDMELWKEHRDQHDLTYGPFTTEGHHWYQLRQALNQRLLKPAEAALYTDAFNEVIDDFMTRLDQLRAESASGNQVSDMAQLFYYFALEAICYILFEKRIGCLQRSIPEDTVTFVRSIGLMFQNSLYATFLPKWTRPVLPFWKRYLDGWNAIFSFGKKLIDEKLEDMEAQLQAAGPDGIQVSGYLHFLLASGQLSPREAMGSLPELLMAGVDTTSNTLTWALYHLSKDPEIQEALHEEVVGVVPAGQVPQHKDFAHMPLLKAVLKETLRLYPVVPTNSRIIEKEIEVDGFLFPKNTQFVFCHYVVSRDPTAFSEPESFQPHRWLRNSQPATPRIQHPFGSVPFGYGVRACLGRRIAELEMQLLLARLIQKYKVVLAPETGELKSVARIVLVPNKKVGLQFLQRQC
- Km [10]: 10.7 ± 3.1 µM
